In patent US9443060B2, “Method and system to provide personalized pharmaceutical compositions and dosages” (Volant Holdings GMBH, priority 2009, dated 2016):
Like-named read-outs stand apart in the source and are kept apart here.

How the values were obtained:
[1] = test system: carbohydrate exposure (CE); test: Glucose supply and insulin demand model: effect on carbohydrate exposure; assay type: in vivo, human; parameters: scale not given here; conditions: Metformin 2000 mg, Glyburide 10 mg, Pioglitazone 45 mg, Insulin Glargine 0.5 U/kg daily; pH encapsulated glucose 3.0 grams/day
Description: (§1) Therapeutic targets of the glucose supply (CE, 1+2; HGU, 3; GNG, 4; IR, 5) and insulin demand (PGU, 6; PIE, 7) model are presented in FIG. 1. To identify quantitative differences between antidiabetic agents on CE, HGU, GNG, IR, PGU, and PIE, multidatabase searches (Cochrane Central Register of Controlled Trials and Cochrane Register of Systematic Reviews, Embase, OVID Healthstar, OVID Journals, and PubMed) were conducted cross-referencing title and keywords for all selected antidiabetic therapies and their respective targets.
(§2) Alpha-glucosidase, biguanide, and thiazolidinedione (TZD) studies with long-term, pre-post design at maximal therapeutic doses were identified to simulate chronic administration. To maintain consistency with cardiovascular trials and accommodate known influences of hyperglycemia and hyperinsulinemia on the respective targets,^13-16 studies including patients with HbA1c in the range of 6-8% and body mass index (BMI)≧30 kg/m^2 were preferentially selected. In the event multiple studies were available to identify the effect of an agent on a therapeutic target, the mean percent change was used. Conversely, if there was evidence that an agent would elicit a response on a given target but no mathematical representation of the difference was provided, conservative estimates consistent with the scale of other agents and the degree of glucose regulation were instituted to best represent the expected effect. Individual agents were then characterized for the 24 h percent change from baseline for CE, HGU, GNG, IR, PGU, and PIE. Carbohydrate exposure was determined as the combined effect of caloric intake and intestinal carbohydrate absorption. Hepatic glucose uptake was defined as the reported value obtained immediately following oral glucose loading. Because GNG is known to be enhanced in the fasting state and persistent throughout the prandial phase,^17,18 effect was determined during the fasting state and considered equivalent throughout the prandial phase. For studies evaluating fasting glucose and insulin concentrations, an index of IR was determined by homeostasis model assessment of insulin resistance (HOM-AIR) using the following formula: Insulin (mU/liter)×Glucose (mmol)/22.5.^19 To account for known differences in secretory and uptake dynamics during the fasting and prandial phases, studies identifying the impact of therapies during the fasting state (or simulated hyperinsulinemic euglycemic clamp) and prandial phase (or oral glucose load insulin clamp) were specifically identified for changes in PGU (glucose infusion rate) and PIE (insulin concentrations) according to Equation (1): […]
(§3) For sulfonylurea and insulin-based therapies, insulin concentration time profiles were obtained and superimposed on the baseline 24 h insulin concentration time profile of T2D patients (FIG. 2) to calculate the increase in PIE (trapezoidal rule).^20 Calculated increases in incremental and cumulative insulin exposure were correlated to known insulin dose-response effects on HGU, GNG, and PGU (FIG. 3),^18,21 according to the equation y=mx+b. Twenty-four-hour increases in HGU, PGU, and PIE and decreases in GNG were compared to baseline values and percent change calculated.
(§4) With alpha-glucosidase, biguanide, TZD, secretagogue, and insulin therapies characterized for their respective impacts on CE, HGU, GNG, IR, PIE, and PGU, identification of their effect on the glucose supply (decrease in CE, increase in HGU, decrease in GNG, decrease in IR) and insulin demand (increase in PIE, increase in PGU) dynamic was assessed according to Equation (2), which provides the SD ratio according to the invention: […]

[2] = test system: hepatic gluconeogenesis (GNG); test: Glucose supply and insulin demand model: effect on hepatic gluconeogenesis; assay type: in vivo, human
Description: as §1, §2, §3, §4

[3] = test system: insulin resistance (IR); test: Glucose supply and insulin demand model: effect on insulin resistance; assay type: in vivo, human
Description: as §1, §2, §3, §4

[4] = test system: peripheral insulin exposure (PIE); test: Glucose supply and insulin demand model: effect on peripheral insulin exposure; assay type: in vivo, human
Description: as §1, §2, §3, §4
Twenty-four-hour steady state insulin concentration time curves were superimposed on the baseline secretion profile of the standard T2D patient.

[5] = test system: caloric intake; conditions: Lee and Morley, T2D, cited from earlier work
[6] = test system: intestinal glucose transfer; conditions: metformin 50 mg/kg, mice; cited from earlier work
[7] = test system: hepatic gluconeogenesis (GNG); conditions: metformin 2550 mg daily, cited from earlier work
[8] = test system: insulin resistance (IR); conditions: cited from earlier work
[9] = test system: peripheral insulin exposure (PIE); conditions: cited from earlier work
[10] = Metformin 2000 mg, Glyburide 10 mg, Pioglitazone 45 mg, Insulin Glargine 0.5 U/kg daily, pH encapsulated glucose 3.0 grams/day

CN(C)C(=N)N=C(N)N [Metformin]
Score CE [1]: 0.15
Score HGI [2, 10]: 0.35
GNG inhibition ([2]; adjustment factor = decrease in hepatic gluconeogenesis at the therapeutic dose of Table 1, T2D): 0.35
Score IR [3, 10]: 0.38
IR reduction ([3]; adjustment factor = decrease in insulin resistance at the therapeutic dose of Table 1, T2D): 0.38
Score PIE [4, 10]: −0.10
PIE ([4]; adjustment factor = increase in peripheral insulin exposure at the therapeutic dose of Table 1, T2D): −0.10
reduction of total caloric intake during the 30 min period ([5]; metformin 850 mg for 3 days): 30%
reduction of total caloric intake during the 30 min period ([5]; metformin 1700 mg for 3 days): 50%
reduction of net glucose transfer in the serosal fluid [6]: 12%
rate of hepatic GNG, ^2H2O method ([7]; Hundal, 3 months, before 0.42±0.04): 0.28±0.03 mmol/m^−2/min^−1
rate of hepatic GNG, nuclear magnetic resonance method ([7]; Hundal, 3 months, before 0.59±0.03): 0.18±0.03 mmol/m^−2/min^−1
reduction of rate of hepatic GNG, ^2H2O method ([7]; Hundal, 3 months): 33%
reduction of rate of hepatic GNG, nuclear magnetic resonance method ([7]; Hundal, 3 months): 36%
reduction of rate of plasma lactate to plasma glucose conversion (GNG) ([7]; Stumvoll, 16 weeks, fasted T2D): 37%
rate of plasma lactate to plasma glucose conversion (GNG) ([7]; Stumvoll, 16 weeks, before 7.3±0.7): 4.6±0.6 μmol/kg^−1/min^−1
reduction of calculated IR ([8]; T2D patients, maximal therapeutic doses of metformin (Iozzo, Stumvoll, Tiikkainen, Sharma)): 38-44%
reduction of calculated IR (HOMA-IR) ([8]; meta-analysis of randomized controlled trials, people at risk for T2D, metformin): 22.6%
mean fasting and postprandial plasma insulin concentrations ([9]; Inzucchi, metformin 2000 mg daily, 12 weeks): slightly, but not significantly reduced
FPI ([9]; Iozzo, metformin, before 63±12): 43.0 ± 5.0 pmol/L
reduction of FPI ([9]; Iozzo, metformin): ~30%
FPI ([9]; Sharma, metformin 2000 mg daily, 16 weeks, before 76.0±54.5): 69.0 ± 45.0 pmol/L
reduction in FPI ([9]; Sharma, metformin 2000 mg daily, 16 weeks): ~10%
FPI ([9]; Stumvoll, metformin, before 12±5): 10 μU/ml
reduction of FPI ([9]; Stumvoll, metformin): 17%
FPI ([9]; Tiikkainen, metformin 2000 mg daily, 16 weeks, before 13): 9 mU/liter
reduction in FPI ([9]; Tiikkainen, metformin 2000 mg daily, 16 weeks): ~30%
reduction of FPI concentrations (range over studies) ([9]; metformin): 10-30%
